Results as given in paper PMC2902621 (Archives of biochemistry and biophysics, 2010).

Molecular target: cytochrome c peroxidase (CcP) (Saccharomyces cerevisiae, UniProt P00431, R115A/T120I/D219G/W258F)
Assay: UV-visible optical titration of ferric enzyme
Type: binding

Chain of cytochrome c peroxidase (CcP) (P00431 68-361 R115A/T120I/D219G/W258F): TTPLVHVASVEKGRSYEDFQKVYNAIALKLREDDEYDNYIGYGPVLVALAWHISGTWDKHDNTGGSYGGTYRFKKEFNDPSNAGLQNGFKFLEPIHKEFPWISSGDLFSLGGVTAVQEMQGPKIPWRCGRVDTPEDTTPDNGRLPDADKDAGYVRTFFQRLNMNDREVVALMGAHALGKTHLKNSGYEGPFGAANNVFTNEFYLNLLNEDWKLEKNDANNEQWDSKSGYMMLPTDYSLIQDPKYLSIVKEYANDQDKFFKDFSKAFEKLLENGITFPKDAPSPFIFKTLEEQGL

Question: For `N=C(N)NO` [NHG, N-hydroxyguanidine], which Kd is on record?
Answer: 3.37 mM
